# From patent US10072011B2, “Substituted bridged urea analogs as sirtuin modulators” (GlaxoSmithKline Intellectual Property (No.2) Limited, priority 2014, dated 2018)
# Like-named read-outs stand apart in the source and are kept apart here.
# Target: T1, SIRT1 (Homo sapiens, UniProt Q96EB6)
# T1 sequence (Q96EB6 1-747): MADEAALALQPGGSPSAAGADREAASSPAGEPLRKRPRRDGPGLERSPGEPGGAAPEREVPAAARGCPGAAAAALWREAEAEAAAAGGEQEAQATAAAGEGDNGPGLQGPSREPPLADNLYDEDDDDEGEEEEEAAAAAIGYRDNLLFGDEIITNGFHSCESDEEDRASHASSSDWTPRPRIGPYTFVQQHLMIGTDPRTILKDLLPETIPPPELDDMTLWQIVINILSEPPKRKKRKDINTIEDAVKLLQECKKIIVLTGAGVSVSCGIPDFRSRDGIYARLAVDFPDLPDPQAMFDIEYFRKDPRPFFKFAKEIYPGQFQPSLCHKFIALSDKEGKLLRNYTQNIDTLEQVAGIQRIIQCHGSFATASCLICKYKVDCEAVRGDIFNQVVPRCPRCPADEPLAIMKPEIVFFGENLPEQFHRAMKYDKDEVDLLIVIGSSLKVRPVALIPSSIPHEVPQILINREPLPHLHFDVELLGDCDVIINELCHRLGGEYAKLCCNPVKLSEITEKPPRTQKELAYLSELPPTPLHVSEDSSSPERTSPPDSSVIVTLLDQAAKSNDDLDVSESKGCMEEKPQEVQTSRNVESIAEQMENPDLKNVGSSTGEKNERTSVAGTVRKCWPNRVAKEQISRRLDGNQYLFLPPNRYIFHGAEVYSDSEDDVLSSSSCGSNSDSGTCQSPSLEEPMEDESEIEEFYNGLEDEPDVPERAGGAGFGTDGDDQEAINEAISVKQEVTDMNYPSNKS
# Assay: Trp mass spectrometry assay of SIRT1 activation (Ac-R-H-K-K(Ac)-W-NH2 peptide)
# Format: biochemical
# Settings: for Emax: 25 min, read-out: TRP MAX RESP (percent maximum fold activation)
# Summary of the method: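 Mass spectrometry read-out (OAADPR formed, or deacetylated Trp peptide) after a 25 min NAD-dependent deacetylation by E. coli-expressed His-SIRT1, stopped with formic acid.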
# [1] = Trp peptide 0.5 μM, 120 μM βNAD+, 10 nM SIRT1, 25 min at 25° C., relative to control (100%)
# [2] = Trp peptide 0.5 μM, 120 μM βNAD+, 10 nM SIRT1, 25 min at 25° C.
Emax [1] [%],"TRP Activity (EC1.5, concentration of test compound that results in 150% activation of SIRT1) [2]",SMILES,Emax [%]
> 150,A (EC1.5<1 μM),"CC(C)[C@@H](C)NC(=O)c1ccc2c(n1)N(C(=O)Nc1ccccn1)[C@H]1CCN2C1 [Example 45, (4S)—N7-((R)-3-methylbutan-2-yl)-N5-(pyridin-2-yl)-3,4-dihydro-1,4-methanopyrido[2,3-b][1,4]diazepine-5,7(2H)-dicarboxamide]",
> 150,B (EC1.5 1-25 μM),"C[C@@H](NC(=O)c1ccc2c(n1)N(C(=O)Nc1cc(C(=O)O)ccn1)[C@H]1CCN2C1)C(F)(F)F [Example 225, 2-((4S)-7-(((R)-1,1,1-trifluoropropan-2-yl)carbamoyl)-2,3,4,5-tetrahydro-1,4-methanopyrido[2,3-b][1,4]diazepine-5-carboxamido)isonicotinic acid]",
> 150,B (EC1.5 1-25 μM),"CC(CO)NC(=O)c1ccc2c(n1)N(C(=O)Nc1ccccn1)[C@H]1CCN2C1 (stereo partly drawn) [Example 10, (4S)—N-7-(1-hydroxypropan-2-yl)-N-5-(pyridin-2-yl)-3,4-dihydro-1,4-methanopyrido [2,3-b] [1, 4] diazepine-5, 7(2H)-dicarboxamide]",
> 150,A (EC1.5<1 μM),"O=C(NC(CO)C1CC1)c1ccc2c(n1)N(C(=O)Nc1ccccn1)[C@H]1CCN2C1 (single isomer, unassigned) [Example 58]",
> 150,A (EC1.5<1 μM),"N[C@H](CNC(=O)c1ccc2c(n1)N(C(=O)Nc1ncccn1)[C@H]1CCN2C1)C(F)(F)F (single isomer, unassigned) [Example 235]",
> 150,A (EC1.5<1 μM),"C[C@@H](NC(=O)c1ccc2c(n1)N(C(=O)Nc1cc3cn[nH]c3cn1)[C@H]1CCN2C1)C(F)(F)F [Example 170, (4S)—N5-(1H-pyrazolo[3,4-c]pyridin-5-yl)-N7-((R)-1,1,1-trifluoropropan-2-yl)-3,4-dihydro-1,4-methanopyrido[2,3-b][1,4]diazepine-5,7(2H)-dicarboxamide]",
< 150,A (EC1.5<1 μM),"CC(=O)Nc1ccnc(NC(=O)N2c3nc(C(=O)N[C@H](C)C(F)(F)F)ccc3N3CC[C@H]2C3)c1 [Example 320, (4S)—N5-(4-acetamidopyridin-2-yl)-N7-((R)-1,1,1-trifluoropropan-2-yl)-3,4-dihydro-1,4-methanopyrido[2,3-b][1,4]diazepine-5,7(2H)-dicarboxamide]",
> 150,A (EC1.5<1 μM),"Cc1nc(NC(=O)N2c3nc(C(=O)NCC4CC4)ccc3N3CC[C@H]2C3)ccc1F [Example 112, (4S)—N7-(cyclopropylmethyl)-N5-(5-fluoro-6-methylpyridin-2-yl)-3,4-dihydro-1,4-methanopyrido[2,3-b][1,4]diazepine-5,7(2H)-dicarboxamide]",
> 150,B (EC1.5 1-25 μM),"C[C@@H](NC(=O)c1ccc2c(n1)N(C(=O)Nc1ccon1)[C@H]1CCN2C1)C(F)(F)F [Example 251, (4S)—N5-(isoxazol-3-yl)-N7-((R)-1,1,1-trifluoropropan-2-yl)-3,4-dihydro-1,4-methanopyrido[2,3-b][1,4]diazepine-5,7(2H)-dicarboxamide]",
> 150,A (EC1.5<1 μM),"Cc1ccc2c(NC(=O)N3c4nc(C(=O)N[C@H](C)C(F)(F)F)ccc4N4CC[C@H]3C4)n[nH]c2n1 [Example 76, (4S)—N5-(6-methyl-1H-pyrazolo[3,4-b]pyridin-3-yl)-N7-((R)-1,1,1-trifluoropropan-2-yl)-3,4-dihydro-1,4-methanopyrido[2,3-b][1,4]diazepine-5,7(2H)-dicarboxamide]",
< 150,A (EC1.5<1 μM),"C[C@@H](NC(=O)c1ccc2c(n1)N(C(=O)Nc1cc(O)ccn1)[C@H]1CCN2C1)C(F)(F)F [Example 301, (4S)—N5-(4-hydroxypyridin-2-yl)-N7-((R)-1,1,1-trifluoropropan-2-yl)-3,4-dihydro-1,4-methanopyrido[2,3-b][1,4]diazepine-5,7(2H)-dicarboxamide]",
> 150,B (EC1.5 1-25 μM),"Cc1ncc(-c2ccnc(NC(=O)N3c4nc(C(=O)NCC5CC5)ccc4N4CC[C@H]3C4)c2)o1 [Example 114, (4S)—N7-(cyclopropylmethyl)-N5-(4-(2-methyloxazol-5-yl)pyridin-2-yl)-3,4-dihydro-1,4-methanopyrido[2,3-b][1,4]diazepine-5,7(2H)-dicarboxamide]",
> 150,A (EC1.5<1 μM),"C[C@@H](NC(=O)c1ccc2c(n1)N(C(=O)Nc1ccccn1)[C@H]1CCN2C1)C(F)(F)F [Example 19, (4S)—N5-(pyridin-2-yl)-N7-((R)-1,1,1-trifluoropropan-2-yl)-3,4-dihydro-1,4-methanopyrido[2,3-b][1,4]diazepine-5,7(2H)-dicarboxamide]",
> 150,A (EC1.5<1 μM),"O=C(NC1CCCC1)c1ccc2c(n1)N(C(=O)Nc1ccccn1)[C@H]1CCN2C1 [Example 35, (4S)—N7-cyclopentyl-N5-(pyridin-2-yl)-3,4-dihydro-1,4-methanopyrido[2,3-b][1,4]diazepine-5,7(2H)-dicarboxamide]",
> 150,B (EC1.5 1-25 μM),"Cc1ccc2c(NC(=O)N3c4nc(C(=O)NC5CC5)ccc4N4CC[C@H]3C4)n[nH]c2n1 [Example 54, (4S)—N7-cyclopropyl-N5-(6-methyl-1H-pyrazolo[3,4-b]pyridin-3-yl)-3,4-dihydro-1,4-methanopyrido[2,3-b][1,4]diazepine-5,7(2H)-dicarboxamide]",
> 150,A (EC1.5<1 μM),"CC[C@@H](NC(=O)c1ccc2c(n1)N(C(=O)Nc1cc(OC[C@H](O)CO)ccn1)[C@H]1CCN2C1)C(F)(F)F [Example 90, (4S)—N5-(4-((R)-2,3-dihydroxypropoxy)pyridin-2-yl)-N7-((R)-1,1,1-trifluorobutan-2-yl)-3,4-dihydro-1,4-methanopyrido[2,3-b][1,4]diazepine-5,7(2H)-dicarboxamide]",
< 150,A (EC1.5<1 μM),"CC(C)NC(=O)c1ccnc(NC(=O)N2c3nc(C(=O)N[C@H](C)C(F)(F)F)ccc3N3CC[C@H]2C3)c1 [Example 297, (4S)—N5-(4-(isopropylcarbamoyl)pyridin-2-yl)-N7-((R)-1,1,1-trifluoropropan-2-yl)-3,4-dihydro-1,4-methanopyrido[2,3-b][1,4]diazepine-5,7(2H)-dicarboxamide]",
> 150,A (EC1.5<1 μM),"O=C(NC[C@@H](O)C(F)(F)F)c1ccc2c(n1)N(C(=O)Nc1ccc(F)cn1)[C@H]1CCN2C1 [Example 71, (4S)—N5-(5-fluoropyridin-2-yl)-N7-((R)-3,3,3-trifluoro-2-hydroxypropyl)-3,4-dihydro-1,4-methanopyrido[2,3-b][1,4]diazepine-5,7(2H)-dicarboxamide]",
> 150,B (EC1.5 1-25 μM),"O=C(O)c1ccc(NC(=O)N2c3nc(C(=O)NCC(F)(F)F)ccc3N3CC[C@H]2C3)nc1 [Example 213, 6-((4S)-7-((2,2,2-trifluoroethyl)carbamoyl)-2,3,4,5-tetrahydro-1,4-methanopyrido[2,3-b][1,4]diazepine-5-carboxamido)nicotinic acid]",

SMILES,Emax [1] [%],"TRP Activity (EC1.5, concentration of test compound that results in 150% activation of SIRT1) [2]",Emax [%]
"CN(C)C(=O)c1ccnc(NC(=O)N2c3nc(C(=O)NCC(F)(F)F)ccc3N3CC[C@H]2C3)c1 [Example 259, (4S)—N5-(4-(dimethylcarbamoyl)pyridin-2-yl)-N7-(2,2,2-trifluoroethyl)-3,4-dihydro-1,4-methanopyrido[2,3-b][1,4]diazepine-5,7(2H)-dicarboxamide]",,B (EC1.5 1-25 μM),> 150
